According to patent US8883789B2, “Piperazine derivatives and their use as positive allosteric modulators of mGluR5 receptors” (Boehringer Ingelheim International GmbH, priority 2011, dated 2014):

Target: T1, human recombinant mGluR5 (Homo sapiens, UniProt P41594)
T1 construct: expressed in transfected cells; hygromycin and geneticin selection
Experiment: positive modulation of mGluR5, calcium based FLIPR assay
Conditions: HEK 293 cell line expressing human recombinant mGluR5; Ca2+ peak height after glutamate at approximately 5% basal stimulation; nonlinear regression
How it was run: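 HEK293 cells with tetracycline-free induction, Calcium-4 dye-loaded in Ringer pH 7.4. Compound added 5 min before glutamate at ~5% of maximal effect, 1% DMSO. EC50 from peak Ca2+ fluorescence, normalized to basal glutamate (100%) and 10 μM CDPPB (200%), via nonlinear regression.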

T1 sequence (P41594 21-1212): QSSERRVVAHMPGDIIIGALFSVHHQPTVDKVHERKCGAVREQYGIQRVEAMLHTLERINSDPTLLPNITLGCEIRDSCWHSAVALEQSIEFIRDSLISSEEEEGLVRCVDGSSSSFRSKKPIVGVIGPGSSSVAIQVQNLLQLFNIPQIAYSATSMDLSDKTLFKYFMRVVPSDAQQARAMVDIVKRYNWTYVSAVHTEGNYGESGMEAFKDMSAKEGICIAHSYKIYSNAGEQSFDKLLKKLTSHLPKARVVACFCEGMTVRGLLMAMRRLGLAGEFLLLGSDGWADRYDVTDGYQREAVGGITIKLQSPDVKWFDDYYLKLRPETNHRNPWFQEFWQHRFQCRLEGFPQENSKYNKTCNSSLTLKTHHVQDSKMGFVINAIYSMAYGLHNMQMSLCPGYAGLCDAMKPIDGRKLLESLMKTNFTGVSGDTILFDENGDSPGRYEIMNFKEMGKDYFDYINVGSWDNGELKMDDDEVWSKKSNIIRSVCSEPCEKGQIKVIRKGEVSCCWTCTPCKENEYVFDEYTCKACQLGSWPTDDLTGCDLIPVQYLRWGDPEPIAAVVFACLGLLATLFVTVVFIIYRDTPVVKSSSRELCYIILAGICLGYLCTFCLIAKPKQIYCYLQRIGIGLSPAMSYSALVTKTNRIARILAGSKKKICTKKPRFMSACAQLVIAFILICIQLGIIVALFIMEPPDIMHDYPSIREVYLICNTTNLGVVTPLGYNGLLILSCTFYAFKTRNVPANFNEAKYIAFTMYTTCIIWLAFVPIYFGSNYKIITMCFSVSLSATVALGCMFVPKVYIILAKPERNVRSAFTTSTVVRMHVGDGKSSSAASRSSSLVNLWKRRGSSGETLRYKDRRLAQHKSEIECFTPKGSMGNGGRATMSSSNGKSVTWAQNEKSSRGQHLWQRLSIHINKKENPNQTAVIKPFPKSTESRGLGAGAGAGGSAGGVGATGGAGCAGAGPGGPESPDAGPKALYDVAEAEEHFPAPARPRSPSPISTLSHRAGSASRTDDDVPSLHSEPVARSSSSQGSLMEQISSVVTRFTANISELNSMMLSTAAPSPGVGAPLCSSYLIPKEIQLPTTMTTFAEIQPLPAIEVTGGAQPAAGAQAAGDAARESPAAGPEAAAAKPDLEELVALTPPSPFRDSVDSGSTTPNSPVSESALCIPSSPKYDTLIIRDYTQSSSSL

Compound | EC50 [nM]
CN(C)c1cccc(C(=O)N2CCN(C(=O)c3ncn(-c4cccc(Cl)c4)n3)C(C)(C)C2)c1 [Example 44] | 136
Cc1cc(-n2cnc(C(=O)N3CCN(C(=O)c4cc(Cl)c5c(c4)OCCO5)CC3(C)C)n2)ccc1F [Example 162] | 475
CCC1(CC)CN(C(=O)c2cccc(Cl)c2)CCN1C(=O)c1ncn(-c2ccccc2)n1 [Example 313] | 931
CC1(C)CN(C(=O)c2cnc3[nH]ccc3c2)CCN1C(=O)c1ncn(-c2cccc(Cl)c2)n1 [Example 59] | 1080
CC(C)c1cccc(C(=O)N2CCN(C(=O)c3ncn(-c4ccccc4)n3)C(C)(C)C2)n1 [Example 206, [4-(6-isopropyl-pyridine-2-carbonyl)-2,2-dimethyl-piperazin-1-yl]-(1-phenyl-1H-[1,2,4]triazol-3-yl)-methanone] | 188
CC1(C)CN(C(=O)c2cc3ccccn3c2)CCN1C(=O)c1ncn(-c2cccc(Cl)c2)n1 [Example 58] | 104
CC1(C)CN(C(=O)c2cccc(-c3ccncc3)n2)CCN1C(=O)c1ncn(-c2ccccc2)n1 [Example 111] | 215
COc1nc(C(=O)N2CCN(C(=O)c3ncn(-c4ccccc4)n3)C(C)(C)C2)cc2ccccc12 [Example 97] | 25
CC1(C)CN(C(=O)c2cc(Cl)c(F)c(Cl)c2)CCN1C(=O)c1ncn(-c2ccccc2)n1 [Example 156] | 232
CCCOc1cccc(C(=O)N2CCN(C(=O)c3ncn(-c4cccc(Cl)c4)n3)CC2C)c1 (stereo not drawn) [Example 219] | 356
COc1ccc2oc(C)c(C(=O)N3CCN(C(=O)c4ncn(-c5cccc(C)c5)n4)C(C)C3)c2c1 (stereo not drawn) [Example 290] | 272
CCc1ccc(C(=O)N2CCN(C(=O)c3ncn(-c4cccc(Cl)c4)n3)C(C)(C)C2)cc1 [Example 81] | 155
CC1(C)CN(C(=O)c2cc(Cl)cc(C(F)(F)F)c2)CCN1C(=O)c1ncn(-c2cccc(Cl)c2)n1 [Example 29] | 109
COc1cccc(C(=O)N2CCN(C(=O)c3ncn(-c4ccc(C)c(F)c4)n3)C(C)(C)C2)n1 [Example 159] | 693
CC(C)c1ccc(C(=O)N2CCN(C(=O)c3ncn(-c4cccc(Cl)c4)n3)C(C)(C)C2)cc1 [Example 61] | 96
CC1(C)CN(C(=O)c2noc(-c3ccccc3)n2)CCN1C(=O)c1ncn(-c2ccccc2)n1 [Example 139] | 314
CC1(C)CN(C(=O)c2cccc(Br)c2)CCN1C(=O)c1ncn(-c2cccc(Cl)c2)n1 [Example 15] | 30
Cc1ccc(Cl)cc1C(=O)N1CCN(C(=O)c2ncn(-c3cccc(Cl)c3)n2)C(C)(C)C1 [Example 57] | 120
CC1(C)CN(C(=O)c2ccc(F)c(Cl)c2)CCN1C(=O)c1ncn(-c2ccccc2)n1 [Example 149] | 353
CC(C#N)c1cccc(C(=O)N2CCN(C(=O)c3ncn(-c4cccc(Cl)c4)n3)C(C)(C)C2)c1 (stereo not drawn) [Example 75] | 419
CC1CN(C(=O)c2ncn(-c3cccc(Cl)c3)n2)CCN1C(=O)c1cccc2c1OCO2 (stereo not drawn) [Example 220] | 799
CC1(C)CN(C(=O)c2cccc(Cl)c2)CCN1C(=O)c1ncn(-c2cccc(Cl)c2)n1 [Example 173, [4-(3-Chloro-benzoyl)-2,2-dimethyl-piperazin-1-yl]-[1-(3-chloro-phenyl)-1H-[1,2,4]triazol-3-yl]-methanone] | 19
Cc1oc2ccc(Br)cc2c1C(=O)N1CCN(C(=O)c2ncn(-c3ccccc3)n2)C(C)(C)C1 [Example 100] | 29
CC1(C)CN(C(=O)c2cccc(COc3ccccc3)c2)CCN1C(=O)c1ncn(-c2cccc(Cl)c2)n1 [Example 74] | 170
Cc1cccc(-n2cnc(C(=O)N3CCN(C(=O)c4c(C)oc5ccccc45)C(C)C3)n2)c1 (stereo not drawn) [Example 238] | 317
COc1cccc2c(C)c(C(=O)N3CCN(C(=O)c4ncn(-c5cccc(Cl)c5)n4)C(C)(C)C3)oc12 [Example 68] | 54
Cc1cccc(-n2cnc(C(=O)N3CCN(C(=O)c4cc(Cl)c5c(c4)OCCO5)CC3(C)C)n2)c1 [Example 9] | 53
